The values below are quoted from earlier work in patent US20050171207A1, “Method and composition for combination treatment of neurodegenerative disorders” (Myriad Genetics, Incorporated, priority 2003, published 2005).

Like-named read-outs stand apart in the source and are kept apart here.

Data set [1] relates to mild-to-moderate AD. To be noted: rofecoxib at 25 mg daily; naproxen in the same trial.
Data set [2] relates to Aβ42. The note with it: transgenic mouse model.
Data set [3] has as its system Aβ42. To be noted: CHO cells.
The subject of data set [4] is pain related chemo-somatosensory evoked potentials. The note with it: 50 mg and 100 mg doses, human subjects.
For data set [5], the system named is mild-to-moderate AD. The note with it: in vivo.
Data set [6] deals with Alzheimer's disease excitotoxic model. To be noted: in vivo Alzheimer's disease excitotoxic model system.

For `COc1ccc2cc([C@H](C)C(=O)O)ccc2c1` [Naproxen], the “efficacy for treating AD” value in the data set with mild-to-moderate AD [1] is “failed to show efficacy”.
With `C[C@@H](C(=O)O)c1ccc(-c2ccccc2)c(F)c1` [R-flurbiprofen], the “inhibition of COX activity” value with COX is reported as “negligibly inhibits COX activity”. The Aβ42 lowering result with Aβ42 [2] and in the data set on Aβ42 [3] was “lower Aβ42” throughout. For the same compound, the analgesic effect entry in data set [4] is listed as “produced an analgesic effect”.
Regarding `CC12CC3CC(C)(C1)CC(N)(C3)C2` [memantine], the “efficacy in treating mild-to-moderate AD” value in the data set with mild-to-moderate AD [5] is reported as “showed efficacy”.
`CS(=O)(=O)c1ccc(C2=C(c3ccccc3)C(=O)OC2)cc1` [rofecoxib]: the “efficacy for treating AD” value with mild-to-moderate AD [1] is recorded as “failed to show efficacy”. For the same compound, the neuroprotection entry in data set [6] was “provides neuroprotection”.
